Laboratory results published in patent US9180163B2, “Parstatin peptides” (priority 2009, dated 2015).
Where two headings read alike, the source gives them in different places.

Assays:
[1] = tested on: Akt (Ser473), endothelial NOS (Ser1177); assay: immunoblot of phospho-Akt and phospho-eNOS in left ventricle after ischemia-reperfusion; assay type: in vivo, rat
Description: To determine whether the cardioprotective effect of parstatin (1-26) is mediated through the PI3K/Akt pathway, rats were treated with wortmannin (15 μg/Kg, a potent and specific PI3K inhibitor) alone or in combination with parstatin fragment 1-26 (1 μg/Kg). Wortmannin abrogated the cardioprotective effects of parstatin (1-26) (FIG. 24B). In addition, the left ventricular free wall tissue was homogenized and immunoblot analysis was performed using an anti-phospho-Akt (Ser473) primary antibody (Cell Signaling Technology, Danvers, Mass.). […] Co-treatment with wortmannin blocked parstastin (1-26)-mediated Akt phorsphorylation (FIG. 24C).
(§1) To determine whether parstatin (1-26) protects the heart by a mechanism involving nitric oxide synthase (NOS), rats were treated with L-NMA (15 μg/Kg, a general NOS inhibitor), with or without parstatin (1-26) (1 μg/Kg) prior to ischemia. […] The role of parstatin (1-26) in endothelial NOS activation was further evaluated by measuring the phosphorylation of Ser1177. In these experiments, the left ventricular free wall tissue was homogenized and immunoblot analysis was performed using an anti-phospho-endothelial NOS (Ser1177) primary antibody (Cell Signaling Technology, Danvers, Mass.). […] In addition, nitrite and nitrate content, a marker of endothelial NOS activity, was measured from both ischemic and non-ischemic tissues. Ischemia and 120 min reperfusion caused an increase in the production of NO in the ischemic tissue from the control group when compared to the sham group (FIG. 25D). […] Pre-ischemic treatment with parstatin (1-26) further increased NO content in the ischemic tissue by an additional 1.4-fold over control values and 2.0-fold over sham treated values.

[2] = tested on: nitric oxide content of myocardium; assay: myocardial nitrite and nitrate content after ischemia-reperfusion; assay type: in vivo, rat; settings: 1 μg/kg pre-ischemic
Description: as §1

[3] = tested on: myocardial ischemia-reperfusion injury in Sprague Dawley rats; settings: for reduction in infarct size: 1 μg/Kg IV bolus
Description: Parstatin (1-41) was used in an in vivo rat model of cardiac ischemia and reperfusion, and in an in vitro isolated rat heart model of ischemia-reperfusion injury.
For in vivo infarct size studies, rats were anesthetized with pentobarbital sodium (50 mg/Kg) and heparin (1000 IU/Kg) and underwent 30 min of regional ischemia followed by 120 min of reperfusion. Parstatin (1-41) was administered-intravenously over 1 min starting 15 min prior to ischemia, or 15 min after the onset of ischemia, or 10 seconds after the onset of reperfusion in separate series of experiments (n=6/group).
To induce ischemia, ligature was positioned around the left main coronary artery and threaded through a plastic snare to permit reversible occlusion of the coronary artery. Coronary occlusion was induced by clamping the snare onto the heart and reperfusion was achieved by releasing the snare. At the end of reperfusion, the coronary artery was re-occluded and the risk zone was delineated by perfusion of 0.5% Evans' blue into the aortic cannula. Hearts were sectioned and incubated in 1% triphenyltetrazolium chloride in phosphate buffer for 15 min to define white necrotic tissue when fixed in 10% formalin for 24 h. Area at risk (AAR) and infarct-to-risk rations were determined by computerized planimetry using J-Image v.i.6 software (NIH, Bethesda, Mass.).
For in vivo infarct size/ischemia-reperfusion studies, rats were anesthetized with pentobarbital sodium (50 mg/Kg) and heparin (1000 IU/Kg) and underwent 30 min of regional ischemia followed by 120 min of reperfusion. Human hydrophobic parstatin (1-26) fragment was administered intravenously over 1 min at one of three time points: 1) starting 15 min prior to ischemia, 2) 15 min after the onset of ischemia, or 3) 10 seconds after the onset of reperfusion in a separate series of experiments (n=6/group).
Ischemia was induced by placement of a ligature around the left main coronary artery which was threaded through a plastic snare to permit reversible occlusion of the coronary artery. Coronary occlusion was induced by clamping the snare onto the heart and reperfusion was achieved by releasing the snare. At the end of reperfusion, the coronary artery was re-occluded and the risk zone was delineated by perfusion 0.5% Evans' blue into the aortic cannula.
Hearts were sectioned and incubated in 1% triphenyltetrazolium chloride in phosphate buffer for 15 min to define white necrotic tissue when fixed in 10% formalin for 24 h. Area at risk (AAR) and infarct-to-risk rations were determined by computerized planimetry using J-Image v.i.6 software (NIH, Bethesda, Mass.). The principal endpoint of these studies was infarct size expressed as a percentage of the area at risk.

[4] = tested on: renal ischemia-reperfusion injury in Wistar rats
Description: Pathogen-free male Wistar rats weighting 250-300 g were used and treated in compliance with the “Guide for the Care and Use of Laboratory Animals” published by the US National Institutes of Health (NIH Publication NO. 85-23, revised 1996).
Rats were anesthetized with intramuscular injection of ketamine (25 mg/Kg) and xylazine hydrochloride (10 mg/Kg). After a midline laparotomy, the renal pedicles were identified and bilaterally occluded for a period of 45 min using nontraumatic microaneurysm clamps. The presence of ischemia was visually confirmed by observing blanching of the kidneys. Sham-operated rats were subjected to identical surgical procedures without causing renal ischemia by application of microaneurysm clamps. At the end of ischemia period the clamps were removed and renal reperfusion was established. All rats were killed 4 hours after the initiation of reperfusion.
Urine was collected during reperfusion, and at the end of the experiments blood samples were taken and analyzed for biochemical markers of renal impairment. Serum creatinine levels were measured as an indicator of glomerular function. Urine concentrations of Na^+ were determined and used in conjunction with serum Na^+ concentrations to estimate FENa which was used as a sensitive indicator of tubular function.
For histological assessment of renal ischemia-reperfusion injury, the rat kidneys were removed 4 hours after reperfusion, fixed in 10% formalin, embedded in paraffin, sectioned (5-μm thicknesses), and stained with haematoxylin and eosin. Tubular injury was identified by the presence of any of flattened tubular cells, loss of brush border, and cast formation. Ten high-powered fields (hpf's; ×400 magnification) from the outer medulla and corticomedullary junction were examined from each animal to determine the percentage of tubules showing evidence of injury and scored according to the following scale: 0, no injury; 1, less than 10%; 2, 10% to 25%; 3, 26% to 75%; 4, greater than 75%. The 10 scores were averaged to give the tubular injury score for each specimen.

HUVEC cells [5] = assay: MTT cell proliferation assay; assay type: cell-based, human; settings: 10 μM
Description: Cell proliferation was evaluated using a 3-(4,5-[…])-2,5-diphenyltetrazolium bromide (MTT, Sigma-Aldrich, St. Louis, Mo.) assay. Endothelial cells (10,000/well) were seeded in 24-well tissue culture plates and incubated with growth medium for 24 h. Cells were then treated with the vehicle or the indicated peptides in medium containing 5% FBS for 1 to 3 days. After 24, 48, or 72 hours, MTT solution (5 mg/ml) was added to each well and incubated for 3 h at 37° C. The blue formazan crystals were solubilized by addition of DMSO and absorbance at 450 nm was recorded using a 96-well plate reader.

HUVEC cells [6] = assay: modified Boyden's chamber cell migration assay; assay type: cell-based, human; settings: toward 5% FBS, 6 h; other peptides 10 μM
Description: HUVEC cell migration was assessed using a modified Boyden's chamber assay, i.e., in Transwell cell culture chambers (Corning Life Sciences, Acton, Mass.). Briefly, polycarbonate filters with 8 μm pores were used to separate the upper and the lower chambers. Cells were added to the upper compartment at a density of 10,000 cells/100 μl in serum-free medium containing 0.5% BSA and incubated for 6 h. Directional migration (chemotaxis) in the lower chamber was induced by addition of medium containing 5% FBS to the lower chamber. Where indicated parstatin or other peptides were added to lower chamber.
Cells on the filters were fixed and stained. The non-migrated cells (cells in upper surface) were removed by wiping with cotton swabs. The cells on the lower surface were counted manually under microscope in six predetermined fields. Parstatin (1-41) attenuated chemotactic cell migration through microporous membrane in response to serum (FIG. 3C). When human parstatin was combined with 5% FBS, the number of migrated cells was reduced in concentration-dependent manner.

HUVEC cells [7] = assay: Matrigel capillary tube-like formation; assay type: cell-based, human; settings: 5% FBS, 18 h; parstatin (1-41) 0.3 to 10 μM, other peptides 10 μM
Description: Primary human umbilical vein endothelial cells (HUVEC cells) were obtained from freshly delivered umbilical cords from caesarean births and were grown in M199 medium with 20% fetal bovine serum (FBS) supplemented with endothelial cell growth supplement and heparin. One of the most specific tests for angiogenesis is the measurement of the ability of endothelial cells to form capillary-like structures (i.e., tube formation). Tube formation is a multi-step process involving cell adhesion, migration and differentiation. Tube formation can be enhanced by use of Matrigel or fibrin clots to coat plastic culture dishes and it is an accepted model of angiogenesis.
Matrigel™ (Becton Dickinson Labware, N.J., USA) is a mixture of basement membrane components extracted from the Englebreth-Holm-Swarm tumor. […] Matrigel™ (250 μl) was added to each well of a 24-well plate and allowed to polymerize. A suspension of 40,000 HUVEC cells in M199 medium containing 5% FBS was added into each well coated with Matrigel™.
Cells were treated with increasing concentrations of human parstatin (1-41), scrambled parstatin, or parstatin (24-41) fragment. After 18 hours of incubation, the medium was removed, and the cells were fixed and stained, and tube-like structures were quantitated.

HUVEC cells [8] = assay: Fibrin gel in vitro angiogenesis assay; assay type: cell-based, human; settings: VEGF/bFGF-induced, 24 h; other peptides 10 μM
Description: The ability of endothelial cells to form three-dimensional structures was analyzed using a Fibrin gel in vitro angiogenesis assay kit (Chemicon International Inc. Temecula, Calif.). Fibrin gels were formed in 48-well plates by mixing fibrinogen and thrombin solutions, according to manufacturer instructions. Cells (40,000 cells/well) were then added and cultured in medium containing 2% FBS for 18 h. After the addition of a second layer of fibrin gel, endothelial cells sandwiched within fibrin gels were cultured in serum-free medium containing 0.5% bovine serum albumin (BSA) and the combination of VEGF/bFGF for 24 h. Where indicated, parstatin (1-41) or other indicated peptides were added. Capillary-like network was photographed and measured.

[9] = parstatin (1-26) IV 10 seconds after initiation of reperfusion

MGPRRLLLVAACFSLCGPLLSARTRA (listed as Homo sapiens) [parstatin (1-26)]
phosphorylation of Akt/Ser473 ([1]; 1 μg/kg pre-ischemic, 5 min reperfusion, vs control rats): increased phosphorylation | endothelial NOS phosphorylation (Ser1177) ([1]; 1 μg/kg, 5 min reperfusion): increased endothelial NOS phosphorylation | Ser1177 phosphorylation with wortmannin ([1]; wortmannin): blocked | Akt phosphorylation with wortmannin co-treatment ([1]; wortmannin 15 μg/kg): blocked | NO levels in non-ischemic tissue compared to control and sham rats [2]: No differences | NO content in the ischemic tissue over control values ([2]; 120 min reperfusion): 1.4 fold | NO content in the ischemic tissue over sham treated values ([2]; 120 min reperfusion): 2.0 fold | reduction in infarct size ([3]; 10 seconds after initiation of reperfusion): 62% | reduction in infarct size ([3]; 15 min after the onset of ischemia): 73% | infarct sparing effect with L-NMA ([3]; 1 μg/Kg, L-NMA 15 μg/Kg): abolished | infarct size in the presence of pertussis toxin ([3]; 1 μg/Kg, pertussis toxin 25 μg/Kg 48 hours prior): unable to reduce infarct size | cardioprotective effects with wortmannin ([3]; 1 μg/Kg, wortmannin 15 μg/Kg): abrogated | reduction in infarct size with ODQ ([3]; 1 μg/kg, ODQ 1 mg/kg): abolished | reduction in infarct size compared with control ([3]; 10 μg/Kg IV 15 min prior to ischemia): 78% | infarct size ([3]; 10 μg/Kg IV 15 min prior to ischemia, 30 min ischemia, 120 min reperfusion): 13±1 % of the area at risk | cardioprotective effects with 5-HD ([3]; 5-HD 10 mg/Kg): blocked | cardioprotective effects with HMR 1098 ([3]; HMR 1098 6 mg/kg): blocked | cardioprotection with atractyloside ([3]; atractyloside 3 mg/Kg): partial blockage | cardioprotective effect with glibenclamide ([3]; glibenclamide 3 mg/kg): completely diminished | baseline hemodynamics (heart rate, blood pressures) between groups ([3]; rat, in vivo): no significant differences | histological scoring of renal injury ([4]; 10 μg/Kg): significantly reduced | reduction of FENa ([4]; 10 μg/Kg IV pre-ischemic): 66% | reduction of serum creatinine ([4]; 10 μg/Kg IV pre-ischemic): 27% | reduction of FENa [4, 9]: 72% | reduction of serum creatinine [4, 9]: 30%

TRARRPESKATNATLDPR (listed as Homo sapiens) [parstatin (24-41), 24-41 (18 amino acids) of human parstatin, hydrophilic fragment]
HUVEC cell proliferation (HUVEC cells [5]): without effect | chemotactic cell migration (HUVEC cells [6]): without effect | tube formation on Matrigel (HUVEC cells [7]): did not affect | capillary-like network (total capillary tube length) in fibrin gels (HUVEC cells [8]): did not affect
